Measured values published in patent publication US20060030054A1, “Fluorescent probe” (Daiichi Pure Chemicclas Co., LTD., of Tokyo, Japan, priority 2002, published 2006).

Key:
[1] = Complex formation constant from fluorescence intensity change on addition of magnesium; format: binding; conditions: 0.2 M Tris-perchlorate buffer pH 7.5, magnesium perchlorate, DMF 0.1%, compound 3 μM
Description: (§1) Fluorescence intensity changes of the compound obtained in Example 5 and the compound obtained in Example 7 above were measured with addition of sodium, magnesium, and potassium. Measurements were conducted in 0.2 M Tris-perchlorate buffers at pH 7.5 containing various concentrations of sodium perchlorate and magnesium perchlorate using dimethylformamide (0.1%) as co-solvent when sodium and magnesium were added, and in 0.2 M Tris-hydrochloride buffers at pH 7.5 containing various concentrations of potassium chloride using dimethylformamide (0.1%) as co-solvent when potassium was added. The final concentrations of the compounds obtained in Example 5 and Example 7 were adjusted to be 3 μM. The compound obtained in Example 5 was measured at excitation wavelength of 492 nm and fluorescence wavelength of 513 nm and the compound obtained in Example 7 was measured at excitation wavelength of 504 nm and fluorescence wavelength of […].

[2] = Complex formation constant from fluorescence intensity change on addition of sodium; format: binding; conditions: 0.2 M Tris-perchlorate buffer pH 7.5, sodium perchlorate, DMF 0.1%, compound 3 μM; read-out: Complex formation constant Na^+
Description: as §1

[3] = Fluorescence intensity change against pH change under co-presence of sodium; format: physicochemical; conditions: 0.2 M Tris-phosphate buffers at various pH, 500 mM sodium perchlorate, DMF 0.1%
Description: Fluorescence intensity changes of the compound obtained in Example 7 and Sodium Green tetra(tetramethylammonium)salt (Molecular Probes Inc.) against pH change were studied under co-presence of sodium. Measurements were conducted in 0.2 M Tris-phosphate buffers at various pH containing 500 mM of sodium perchlorate using dimethylformamide (0.1%) as a co-solvent. The compound obtained in Example 7 was measured at excitation wavelength of 504 nm and fluorescence wavelength of 522 nm and Sodium Green tetra(tetramethylammonium)salt was measured at excitation wavelength of 508 nm and fluorescence wavelength of 533 nm.

[4] = Complex formation constant from fluorescence intensity change on addition of potassium; format: binding; conditions: 0.2 M Tris-hydrochloride buffer pH 7.5, potassium chloride, DMF 0.1%, compound 3 μM; read-out: Complex formation constant K^+
Description: as §1

Cc1cc2c(cc1-c1c3cc(Cl)c(=O)cc-3oc3cc(O)c(Cl)cc13)OCCOCCOCCOCCO2 [Example 7]
Complex formation constant Mg^+ [1]: Unmeasurable | Kd [2]: 320 µM | Susceptibility of fluorescence intensity to pH change compared with Sodium Green tetra(tetramethylammonium)salt [3]: less susceptible to a pH change | Kd [4]: 410 µM
